Assay results as given in publication PMC7101356, “Cross-site and cross-platform variability of automated patch clamp assessments of drug effects on human cardiac currents in recombinant cells” (Scientific Reports, 2020).

How the values were obtained:
[1] = biological target: hERG (Homo sapiens, UniProt Q12809); test: Automated patch clamp, hERG current block (consensus step-ramp protocol); details: for hERG K+ current inhibition, Mean, at maximal concentration: max conc [mol/L]: bep 3.00E-07, cpz 3.00E-06, cis 3.00E-07, dil 1.00E-04, dof 1.00E-07, mex 1.00E-04, ond 1.00E-05, qui 1.00E-05, ran 1.00E-04, sot 3.00E-04, ter 3.00E-07, ver 1.00E-06; for hERG K+ current inhibition, Mean, at minimal concentration: min conc [mol/L]: bep 1.00E-08, cpz 1.00E-07, cis 1.00E-09, dil 3.00E-06, dof 1.00E-09, mex 1.00E-06, ond 3.00E-07, qui 1.00E-07, ran 3.00E-06, sot 1.00E-05, ter 1.00E-08, ver 3.00E-08
[2] = biological target: T1, peak hNav1.5 (Homo sapiens, UniProt Q14524); test: Automated patch clamp, peak hNav1.5 current block; assay type: cell-based
T1 construct: expressed in transfected cells; host or cells: HEK293 or CHO, depending on site

[3] = s03_p2, HEK293, room temperature
[4] = s16_p3, HEK293, room temperature

T1 sequence (Q14524 whole entry): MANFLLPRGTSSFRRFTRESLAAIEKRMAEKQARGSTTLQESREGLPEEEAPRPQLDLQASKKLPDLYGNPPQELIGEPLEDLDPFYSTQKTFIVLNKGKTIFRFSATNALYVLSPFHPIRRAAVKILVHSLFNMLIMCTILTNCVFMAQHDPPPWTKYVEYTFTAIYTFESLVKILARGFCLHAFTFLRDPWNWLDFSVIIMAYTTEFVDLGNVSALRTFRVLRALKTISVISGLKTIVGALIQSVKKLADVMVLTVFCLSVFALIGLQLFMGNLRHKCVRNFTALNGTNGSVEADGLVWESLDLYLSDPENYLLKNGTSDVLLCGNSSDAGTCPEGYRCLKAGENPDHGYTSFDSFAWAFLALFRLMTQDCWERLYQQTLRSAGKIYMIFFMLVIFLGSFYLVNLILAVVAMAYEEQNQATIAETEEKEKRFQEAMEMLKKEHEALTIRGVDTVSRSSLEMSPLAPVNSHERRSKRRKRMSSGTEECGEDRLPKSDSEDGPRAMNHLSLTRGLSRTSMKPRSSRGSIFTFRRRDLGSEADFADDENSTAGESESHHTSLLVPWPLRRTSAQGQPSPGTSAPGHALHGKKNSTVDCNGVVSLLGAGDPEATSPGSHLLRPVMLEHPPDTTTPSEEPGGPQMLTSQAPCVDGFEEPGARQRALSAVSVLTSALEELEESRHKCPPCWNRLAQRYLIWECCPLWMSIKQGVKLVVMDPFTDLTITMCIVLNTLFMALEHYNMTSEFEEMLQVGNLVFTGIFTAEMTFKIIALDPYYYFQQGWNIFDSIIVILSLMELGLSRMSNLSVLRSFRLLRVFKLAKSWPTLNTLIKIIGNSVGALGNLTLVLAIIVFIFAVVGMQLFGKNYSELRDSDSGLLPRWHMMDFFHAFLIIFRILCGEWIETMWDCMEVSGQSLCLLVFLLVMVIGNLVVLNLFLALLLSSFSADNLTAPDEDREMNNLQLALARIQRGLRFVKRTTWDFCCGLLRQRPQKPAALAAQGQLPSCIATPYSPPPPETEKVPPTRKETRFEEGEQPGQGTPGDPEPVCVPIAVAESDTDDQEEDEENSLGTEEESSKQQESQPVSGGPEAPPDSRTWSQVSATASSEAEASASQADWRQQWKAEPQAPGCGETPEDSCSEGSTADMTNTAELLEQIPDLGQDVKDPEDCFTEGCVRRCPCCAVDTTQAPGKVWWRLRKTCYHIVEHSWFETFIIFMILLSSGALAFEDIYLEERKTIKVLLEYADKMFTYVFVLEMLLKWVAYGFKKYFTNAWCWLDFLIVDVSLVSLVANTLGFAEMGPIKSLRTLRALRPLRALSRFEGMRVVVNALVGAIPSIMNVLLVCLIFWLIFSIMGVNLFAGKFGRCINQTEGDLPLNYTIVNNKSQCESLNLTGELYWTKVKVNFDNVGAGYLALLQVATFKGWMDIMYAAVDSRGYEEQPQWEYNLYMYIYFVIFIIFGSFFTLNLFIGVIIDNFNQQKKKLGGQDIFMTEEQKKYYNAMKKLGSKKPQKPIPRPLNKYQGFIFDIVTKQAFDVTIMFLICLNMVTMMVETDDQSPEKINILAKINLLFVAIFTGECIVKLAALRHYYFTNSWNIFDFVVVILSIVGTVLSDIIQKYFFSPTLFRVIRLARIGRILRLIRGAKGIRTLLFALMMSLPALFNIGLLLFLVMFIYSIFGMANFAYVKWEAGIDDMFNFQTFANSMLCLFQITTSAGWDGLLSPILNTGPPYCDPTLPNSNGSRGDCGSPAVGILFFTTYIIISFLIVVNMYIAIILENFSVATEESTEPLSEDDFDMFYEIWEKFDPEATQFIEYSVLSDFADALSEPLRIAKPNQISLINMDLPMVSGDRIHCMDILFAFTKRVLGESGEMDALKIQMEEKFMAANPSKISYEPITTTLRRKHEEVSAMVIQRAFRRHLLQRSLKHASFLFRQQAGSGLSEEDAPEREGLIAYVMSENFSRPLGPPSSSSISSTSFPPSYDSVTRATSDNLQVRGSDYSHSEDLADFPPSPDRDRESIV
Sequence of hERG (Q12809 whole entry): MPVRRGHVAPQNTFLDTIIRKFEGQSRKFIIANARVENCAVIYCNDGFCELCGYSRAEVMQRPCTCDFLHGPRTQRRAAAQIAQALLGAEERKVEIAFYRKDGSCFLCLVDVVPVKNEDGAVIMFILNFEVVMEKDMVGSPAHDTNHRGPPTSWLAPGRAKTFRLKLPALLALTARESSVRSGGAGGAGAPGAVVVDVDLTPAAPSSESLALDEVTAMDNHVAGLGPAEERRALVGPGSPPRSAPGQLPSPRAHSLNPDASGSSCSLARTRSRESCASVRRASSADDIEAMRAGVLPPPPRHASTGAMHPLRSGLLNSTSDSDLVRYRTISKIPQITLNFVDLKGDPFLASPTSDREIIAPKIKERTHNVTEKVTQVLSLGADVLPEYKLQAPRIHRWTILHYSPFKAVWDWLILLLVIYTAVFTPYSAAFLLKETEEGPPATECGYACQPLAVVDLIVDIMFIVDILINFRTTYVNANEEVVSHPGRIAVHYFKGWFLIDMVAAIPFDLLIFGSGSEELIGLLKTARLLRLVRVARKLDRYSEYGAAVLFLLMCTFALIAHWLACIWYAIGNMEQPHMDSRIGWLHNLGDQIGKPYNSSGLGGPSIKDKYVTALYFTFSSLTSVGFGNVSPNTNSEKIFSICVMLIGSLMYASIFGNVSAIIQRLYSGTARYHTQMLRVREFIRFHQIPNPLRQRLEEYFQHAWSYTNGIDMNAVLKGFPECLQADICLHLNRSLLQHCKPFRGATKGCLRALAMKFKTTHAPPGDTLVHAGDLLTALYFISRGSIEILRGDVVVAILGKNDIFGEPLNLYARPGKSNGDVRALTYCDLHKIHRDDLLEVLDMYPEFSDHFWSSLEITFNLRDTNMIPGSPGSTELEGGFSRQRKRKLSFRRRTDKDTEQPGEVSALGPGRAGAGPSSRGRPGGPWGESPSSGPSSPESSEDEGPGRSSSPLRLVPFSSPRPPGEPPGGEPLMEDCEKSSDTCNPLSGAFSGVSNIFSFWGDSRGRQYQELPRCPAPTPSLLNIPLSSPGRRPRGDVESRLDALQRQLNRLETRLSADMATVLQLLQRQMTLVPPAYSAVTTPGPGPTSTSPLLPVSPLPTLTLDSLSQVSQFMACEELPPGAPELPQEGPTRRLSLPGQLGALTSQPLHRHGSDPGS

Cc1cccc(C)c1OCC(C)N (stereo not shown) [mex, mexiletine]
IC50 ([1]; hERG K+ current log IC50, s01_p1, CHO, 23 °C): 138 µM | IC50 ([1]; hERG K+ current log IC50, s02_p2, HEK293, 22–26 °C): 110 µM | IC50 ([1]; hERG K+ current log IC50, s03_p2, HEK293, room temperature): 20.4 µM | IC50 ([1]; hERG K+ current log IC50, s04_p3, CHO, room temperature): 47.9 µM | IC50 ([1]; hERG K+ current log IC50, s15_p1, HEK293, 22–23 °C): 24 µM | IC50 ([1]; hERG K+ current log IC50, s16_p3, HEK293, room temperature): 85.1 µM | inhibition at 0.0001 mol/L ([1]; human, hERG K+ current inhibition, Mean, site_platform s07_p5, 1.00E-04 mol/L): 65% | inhibition at 1e-06 mol/L ([1]; human, hERG K+ current inhibition, Mean, site_platform s07_p5, 1.00E-06 mol/L): -10.5% | inhibition at 4 min, 0.0001 mol/L ([1]; human, hERG K+ current inhibition, Mean, site_platform s10_p3, 1.00E-04 mol/L): 42% | inhibition at 4 min, 1e-06 mol/L ([1]; human, hERG K+ current inhibition, Mean, site_platform s10_p3, 1.00E-06 mol/L): -3.5% | inhibition at 7 min, 0.0001 mol/L ([1]; human, hERG K+ current inhibition, Mean, site_platform s11_p1, 1.00E-04 mol/L): 73.7% | inhibition at 0.0001 mol/L ([1]; human, hERG K+ current inhibition, Mean, site_platform s12_p2, 1.00E-04 mol/L): 56.6% | inhibition at 1e-06 mol/L ([1]; human, hERG K+ current inhibition, Mean, site_platform s12_p2, 1.00E-06 mol/L): 0.2% | inhibition at 0.0001 mol/L ([1]; human, hERG K+ current inhibition, Mean, site_platform s13_p2, 1.00E-04 mol/L): 78.6% | inhibition at 1e-06 mol/L ([1]; human, hERG K+ current inhibition, Mean, site_platform s13_p2, 1.00E-06 mol/L): 7.7% | inhibition at 7 min, 0.0001 mol/L ([1]; human, hERG K+ current inhibition, Mean, site_platform s14_p1, 1.00E-04 mol/L): 60.2% | inhibition at 7 min, 1e-06 mol/L ([1]; human, hERG K+ current inhibition, Mean, site_platform s14_p1, 1.00E-06 mol/L): 10.8% | inhibition at 7 min, 1e-06 mol/L ([1]; human, recombinant cells expressing hERG, hERG K+ current inhibition, Mean, site_platform s11_p1, 1.00E-06 mol/L): 29.4% | IC50 ([1]; log IC50, hERG K+ current inhibition, site_platform s07_p5): 72.4 µM | IC50 ([1]; log IC50, hERG K+ current inhibition, site_platform s10_p3): 126 µM | IC50 ([1]; log IC50, hERG K+ current inhibition, site_platform s11_p1): 15.8 µM | IC50 ([1]; log IC50, hERG K+ current inhibition, site_platform s12_p2): 77.6 µM | IC50 ([1]; log IC50, hERG K+ current inhibition, site_platform s13_p2): 34.7 µM | IC50 ([1]; log IC50, hERG K+ current inhibition, site_platform s14_p1): 63.1 µM | hERG K+ current nH, Hill slope ([1]; s01_p1, CHO, 23 °C): 0.78 | hERG K+ current inhibition, Mean, at maximal concentration ([1]; s01_p1, CHO, 23 °C): 46.1% | hERG K+ current inhibition, Mean, at minimal concentration ([1]; s01_p1, CHO, 23 °C): 0.7% | hERG K+ current nH, Hill slope ([1]; s02_p2, HEK293, 22–26 °C): 0.95 | hERG K+ current inhibition, Mean, at maximal concentration ([1]; s02_p2, HEK293, 22–26 °C): 48.2% | hERG K+ current inhibition, Mean, at minimal concentration ([1]; s02_p2, HEK293, 22–26 °C): 1.0% | hERG K+ current nH, Hill slope [1, 3]: 0.95 | hERG K+ current inhibition, Mean, at maximal concentration [1, 3]: 86.8% | hERG K+ current inhibition, Mean, at minimal concentration [1, 3]: 14.6% | hERG K+ current nH, Hill slope ([1]; s04_p3, CHO, room temperature): 0.81 | hERG K+ current inhibition, Mean, at maximal concentration ([1]; s04_p3, CHO, room temperature): 67.4% | hERG K+ current inhibition, Mean, at minimal concentration ([1]; s04_p3, CHO, room temperature): 9.7% | hERG K+ current log IC50 ([1]; s05_p4, HEK293, 22–24 °C): -4.37 log mol/L | hERG K+ current nH, Hill slope ([1]; s05_p4, HEK293, 22–24 °C): 1.45 | hERG K+ current inhibition, Mean, at maximal concentration ([1]; s05_p4, HEK293, 22–24 °C): 75.7% | hERG K+ current nH, Hill slope ([1]; s15_p1, HEK293, 22–23 °C): 0.72 | hERG K+ current inhibition, Mean, at maximal concentration ([1]; s15_p1, HEK293, 22–23 °C): 74.6% | hERG K+ current inhibition, Mean, at minimal concentration ([1]; s15_p1, HEK293, 22–23 °C): 10.3% | hERG K+ current nH, Hill slope [1, 4]: 0.76 | hERG K+ current inhibition, Mean, at maximal concentration [1, 4]: 52.6% | hERG K+ current inhibition, Mean, at minimal concentration [1, 4]: 3.9% | hERG K+ current nH, Hill slope ([1]; s18_p1, CHO, 35 °C): 1.12 | hERG K+ current inhibition, Mean, at maximal concentration ([1]; s18_p1, CHO, 35 °C): 70.4% | hERG K+ current inhibition, Mean, at minimal concentration ([1]; s18_p1, CHO, 35 °C): -1.2% | hERG K+ current nH, Hill slope ([1]; s19_p3, CHO, room temperature): 0.84 | hERG K+ current inhibition, Mean, at maximal concentration ([1]; s19_p3, CHO, room temperature): 58.4% | hERG K+ current inhibition, Mean, at minimal concentration ([1]; s19_p3, CHO, room temperature): 4.2% | nH (Hill slope), hERG K+ current inhibition ([1]; site_platform s07_p5): 1.95 | nH (Hill slope), hERG K+ current inhibition ([1]; site_platform s10_p3): 1.32 | nH (Hill slope), hERG K+ current inhibition ([1]; site_platform s11_p1): 0.41 | nH (Hill slope), hERG K+ current inhibition ([1]; site_platform s12_p2): 1.12 | nH (Hill slope), hERG K+ current inhibition ([1]; site_platform s13_p2): 1.01 | nH (Hill slope), hERG K+ current inhibition ([1]; site_platform s14_p1): 0.63 | hNav1.5 IC50 variability (25/75 percentiles) ([2]; across sites and platforms): 4 fold | nH (Hill slope), peak hNav1.5 Na+ current inhibition ([2]; site_platform s01_p1): 0.31 | Peak hNav1.5 Na+ current inhibition, Mean ([2]; site_platform s01_p1, 1.00E-04 mol/L): 89.8% | Peak hNav1.5 Na+ current inhibition, Mean ([2]; site_platform s01_p1, 1.00E-06 mol/L): 57.9% | nH (Hill slope), peak hNav1.5 Na+ current inhibition ([2]; site_platform s02_p2): 0.99 | Peak hNav1.5 Na+ current inhibition, Mean ([2]; site_platform s02_p2, 1.00E-04 mol/L): 54.9% | Peak hNav1.5 Na+ current inhibition, Mean ([2]; site_platform s02_p2, 1.00E-06 mol/L): -1.5% | nH (Hill slope), peak hNav1.5 Na+ current inhibition ([2]; site_platform s04_p3): 0.51 | Peak hNav1.5 Na+ current inhibition, Mean ([2]; site_platform s04_p3, 1.00E-04 mol/L): 47.7% | Peak hNav1.5 Na+ current inhibition, Mean ([2]; site_platform s04_p3, 1.00E-06 mol/L): 8.8% | nH (Hill slope), peak hNav1.5 Na+ current inhibition ([2]; site_platform s06_p4): 1.28 | Peak hNav1.5 Na+ current inhibition, Mean ([2]; site_platform s06_p4, 1.00E-04 mol/L): 62.4% | Peak hNav1.5 Na+ current inhibition, Mean ([2]; site_platform s06_p4, 1.00E-06 mol/L): 2.4% | nH (Hill slope), peak hNav1.5 Na+ current inhibition ([2]; site_platform s07_p6): 0.86 | Peak hNav1.5 Na+ current inhibition, Mean ([2]; site_platform s07_p6, 1.00E-04 mol/L): 79.8% | Peak hNav1.5 Na+ current inhibition, Mean ([2]; site_platform s07_p6, 1.00E-06 mol/L): 7.1%
